Several values for one entry are separate records, joined by “and”; a condition that tells them apart may be missing. Equal values may be shown once.
Tests used:
[1] = biological target: Transcription initiation factor TFIID subunit 1 (Homo sapiens) (UniProt P21675); conditions: Compound concentration 10.0 uM, Protein concentration 2.0 uM
[2] = biological target: Bromodomain-containing protein 3 (Homo sapiens) (UniProt Q15059); conditions: Compound concentration 10.0 uM, Protein concentration 2.0 uM
[3] = biological target: Bromodomain-containing protein 4 (Homo sapiens) (UniProt O60885); conditions: Compound concentration 10.0 uM, Protein concentration 2.0 uM
[4] = biological target: ATPase family AAA domain-containing protein 2 (Homo sapiens) (UniProt Q6PL18); conditions: Compound concentration 10.0 uM, Protein concentration 2.0 uM
[5] = biological target: SWI/SNF-related matrix-associated actin-dependent regulator of chromatin subfamily A member 2 (Homo sapiens) (UniProt P51531); conditions: Compound concentration 10.0 uM, Protein concentration 2.0 uM
[6] = biological target: ATPase family AAA domain-containing protein 2B (Homo sapiens) (UniProt Q9ULI0); conditions: Compound concentration 10.0 uM, Protein concentration 2.0 uM
[7] = biological target: Nucleosome-remodeling factor subunit BPTF (Homo sapiens) (UniProt Q12830); conditions: Compound concentration 10.0 uM, Protein concentration 2.0 uM
[8] = biological target: Histone acetyltransferase KAT2A (Homo sapiens) (UniProt Q92830); conditions: Compound concentration 10.0 uM, Protein concentration 2.0 uM
[9] = biological target: Histone acetyltransferase KAT2B (Homo sapiens) (UniProt Q92831); conditions: Compound concentration 10.0 uM, Protein concentration 2.0 uM
[10] = biological target: Bromodomain and WD repeat-containing protein 3 (Homo sapiens) (UniProt Q6RI45); conditions: Compound concentration 10.0 uM, Protein concentration 2.0 uM
[11] = biological target: Bromodomain-containing protein 2 (Homo sapiens) (UniProt P25440); conditions: Compound concentration 10.0 uM, Protein concentration 2.0 uM
[12] = biological target: Transcription intermediary factor 1-alpha (Homo sapiens) (UniProt O15164); conditions: Compound concentration 10.0 uM, Protein concentration 2.0 uM
[13] = biological target: Bromodomain adjacent to zinc finger domain protein 1A (Homo sapiens) (UniProt Q9NRL2); conditions: Compound concentration 10.0 uM, Protein concentration 2.0 uM
[14] = biological target: Bromodomain-containing protein 7 (Homo sapiens) (UniProt Q9NPI1); conditions: Compound concentration 10.0 uM, Protein concentration 2.0 uM
[15] = biological target: Bromodomain adjacent to zinc finger domain protein 2B (Homo sapiens) (UniProt Q9UIF8); conditions: Compound concentration 10.0 uM, Protein concentration 2.0 uM
[16] = biological target: PH-interacting protein (Homo sapiens) (UniProt Q8WWQ0); conditions: Compound concentration 10.0 uM, Protein concentration 2.0 uM
[17] = biological target: Nuclear body protein SP140-like protein (Homo sapiens) (UniProt Q9H930); conditions: Compound concentration 10.0 uM, Protein concentration 2.0 uM
[18] = biological target: Nuclear body protein SP140 (Homo sapiens) (UniProt Q13342); conditions: Compound concentration 10.0 uM, Protein concentration 2.0 uM
[19] = biological target: Transcription initiation factor TFIID subunit 1-like (Homo sapiens) (UniProt Q8IZX4); conditions: Compound concentration 10.0 uM, Protein concentration 2.0 uM
Transcription initiation factor TFIID subunit 1-like (Homo sapiens), sequence (Q8IZX4 whole entry): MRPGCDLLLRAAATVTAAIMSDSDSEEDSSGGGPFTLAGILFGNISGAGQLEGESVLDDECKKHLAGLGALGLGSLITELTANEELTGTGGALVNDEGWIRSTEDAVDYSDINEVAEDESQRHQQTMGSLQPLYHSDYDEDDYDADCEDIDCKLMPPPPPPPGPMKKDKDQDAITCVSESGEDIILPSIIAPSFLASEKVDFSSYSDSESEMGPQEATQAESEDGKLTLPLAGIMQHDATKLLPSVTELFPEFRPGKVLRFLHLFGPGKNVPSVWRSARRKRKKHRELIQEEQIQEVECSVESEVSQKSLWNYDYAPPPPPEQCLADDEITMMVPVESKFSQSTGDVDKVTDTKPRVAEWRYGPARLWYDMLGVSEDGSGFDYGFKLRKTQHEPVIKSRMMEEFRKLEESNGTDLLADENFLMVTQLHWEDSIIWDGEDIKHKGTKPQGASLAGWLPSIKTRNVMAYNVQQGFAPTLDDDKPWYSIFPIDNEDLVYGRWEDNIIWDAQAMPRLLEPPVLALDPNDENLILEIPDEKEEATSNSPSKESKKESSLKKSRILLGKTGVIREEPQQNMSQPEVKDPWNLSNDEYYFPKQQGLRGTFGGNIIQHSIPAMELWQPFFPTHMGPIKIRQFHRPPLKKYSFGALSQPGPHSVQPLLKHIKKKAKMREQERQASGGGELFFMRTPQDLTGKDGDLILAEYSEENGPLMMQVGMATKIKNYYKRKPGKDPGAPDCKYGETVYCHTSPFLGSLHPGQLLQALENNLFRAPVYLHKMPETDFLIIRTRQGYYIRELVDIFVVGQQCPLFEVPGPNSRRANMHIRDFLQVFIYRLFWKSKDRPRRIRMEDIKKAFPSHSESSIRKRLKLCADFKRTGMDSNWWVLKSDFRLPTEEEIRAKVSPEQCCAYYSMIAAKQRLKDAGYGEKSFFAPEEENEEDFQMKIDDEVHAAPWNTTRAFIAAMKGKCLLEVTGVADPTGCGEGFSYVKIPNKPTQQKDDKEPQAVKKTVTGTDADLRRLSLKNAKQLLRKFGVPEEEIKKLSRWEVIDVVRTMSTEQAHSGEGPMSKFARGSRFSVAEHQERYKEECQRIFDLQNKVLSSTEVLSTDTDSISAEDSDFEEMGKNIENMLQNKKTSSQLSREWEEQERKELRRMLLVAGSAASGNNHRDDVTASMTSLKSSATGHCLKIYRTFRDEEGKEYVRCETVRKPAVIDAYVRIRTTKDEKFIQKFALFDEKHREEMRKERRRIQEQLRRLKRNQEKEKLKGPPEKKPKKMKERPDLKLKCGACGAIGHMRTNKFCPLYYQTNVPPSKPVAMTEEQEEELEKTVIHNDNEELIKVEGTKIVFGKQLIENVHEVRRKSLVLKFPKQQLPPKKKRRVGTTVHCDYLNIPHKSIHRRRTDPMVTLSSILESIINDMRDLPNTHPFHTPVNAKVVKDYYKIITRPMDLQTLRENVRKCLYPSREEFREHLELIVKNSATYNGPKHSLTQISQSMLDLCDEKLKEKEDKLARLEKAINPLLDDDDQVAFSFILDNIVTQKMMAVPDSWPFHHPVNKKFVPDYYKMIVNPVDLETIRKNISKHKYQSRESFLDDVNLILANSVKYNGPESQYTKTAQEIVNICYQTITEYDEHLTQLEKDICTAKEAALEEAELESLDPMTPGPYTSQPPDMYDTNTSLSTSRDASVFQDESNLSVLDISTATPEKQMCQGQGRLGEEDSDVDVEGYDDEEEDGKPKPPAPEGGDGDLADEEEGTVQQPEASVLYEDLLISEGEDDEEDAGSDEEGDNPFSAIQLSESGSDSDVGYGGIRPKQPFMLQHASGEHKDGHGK

[20] = biological target: E3 ubiquitin-protein ligase TRIM33 (Homo sapiens) (UniProt Q9UPN9); conditions: Compound concentration […], Protein concentration 200.0 uM
[21] = biological target: Protein polybromo-1 (Homo sapiens) (UniProt Q86U86); conditions: Compound concentration 10.0 uM, Protein concentration 2.0 uM
Protein polybromo-1 (Homo sapiens), sequence (Q86U86 whole entry, the tested form may be a part): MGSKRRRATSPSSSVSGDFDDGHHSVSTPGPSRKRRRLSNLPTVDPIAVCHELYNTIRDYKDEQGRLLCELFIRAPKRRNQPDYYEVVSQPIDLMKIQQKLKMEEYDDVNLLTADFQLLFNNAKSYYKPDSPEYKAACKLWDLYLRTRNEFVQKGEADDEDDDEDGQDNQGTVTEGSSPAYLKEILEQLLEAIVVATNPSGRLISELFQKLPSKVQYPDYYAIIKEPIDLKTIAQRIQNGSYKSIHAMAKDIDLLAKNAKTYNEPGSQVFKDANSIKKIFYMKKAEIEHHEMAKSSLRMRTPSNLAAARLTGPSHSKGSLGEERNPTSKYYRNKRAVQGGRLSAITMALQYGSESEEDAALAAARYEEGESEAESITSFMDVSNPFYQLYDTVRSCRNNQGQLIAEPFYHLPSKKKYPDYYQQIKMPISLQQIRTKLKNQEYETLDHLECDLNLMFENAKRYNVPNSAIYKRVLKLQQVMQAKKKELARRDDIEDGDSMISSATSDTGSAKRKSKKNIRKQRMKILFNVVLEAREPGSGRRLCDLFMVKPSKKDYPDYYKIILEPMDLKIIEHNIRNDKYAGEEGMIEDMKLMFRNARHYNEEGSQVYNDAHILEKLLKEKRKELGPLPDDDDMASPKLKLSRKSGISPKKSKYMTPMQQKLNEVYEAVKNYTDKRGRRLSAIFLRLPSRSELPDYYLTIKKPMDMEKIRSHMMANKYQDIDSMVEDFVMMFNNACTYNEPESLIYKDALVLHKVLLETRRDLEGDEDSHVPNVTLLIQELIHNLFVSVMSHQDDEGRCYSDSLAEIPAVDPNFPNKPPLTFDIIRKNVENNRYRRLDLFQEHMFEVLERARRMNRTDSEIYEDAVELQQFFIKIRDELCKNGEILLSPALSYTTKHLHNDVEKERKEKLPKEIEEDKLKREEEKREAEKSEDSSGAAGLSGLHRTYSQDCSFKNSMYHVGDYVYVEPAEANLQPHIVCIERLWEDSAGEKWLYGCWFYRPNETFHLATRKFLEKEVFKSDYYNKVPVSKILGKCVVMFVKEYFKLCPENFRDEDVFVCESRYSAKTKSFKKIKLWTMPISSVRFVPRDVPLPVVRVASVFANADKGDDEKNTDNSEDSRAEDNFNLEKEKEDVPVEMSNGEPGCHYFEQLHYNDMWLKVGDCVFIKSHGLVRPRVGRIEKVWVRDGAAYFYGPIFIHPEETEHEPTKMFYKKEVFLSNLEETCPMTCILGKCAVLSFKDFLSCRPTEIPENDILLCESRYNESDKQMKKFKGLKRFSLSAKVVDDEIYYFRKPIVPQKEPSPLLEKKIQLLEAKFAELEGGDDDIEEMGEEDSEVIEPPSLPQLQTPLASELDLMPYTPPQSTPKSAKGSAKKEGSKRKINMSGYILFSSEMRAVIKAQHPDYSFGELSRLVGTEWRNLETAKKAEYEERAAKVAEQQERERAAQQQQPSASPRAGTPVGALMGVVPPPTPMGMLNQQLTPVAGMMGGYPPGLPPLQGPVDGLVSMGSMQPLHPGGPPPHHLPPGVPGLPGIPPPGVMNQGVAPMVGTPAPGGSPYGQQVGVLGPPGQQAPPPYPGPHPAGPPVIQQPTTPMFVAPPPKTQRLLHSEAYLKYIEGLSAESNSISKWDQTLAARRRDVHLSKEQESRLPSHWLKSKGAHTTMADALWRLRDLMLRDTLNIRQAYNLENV

[22] = biological target: Bromodomain-containing protein 9 (Homo sapiens) (UniProt Q9H8M2); conditions: Compound concentration 10.0 uM, Protein concentration 2.0 uM
[23] = biological target: Transcription initiation factor TFIID subunit 1-like (Homo sapiens) (UniProt Q8IZX4); conditions: Compound concentration 10.0 uM, Protein concentration 2.0 uM; remark: listed apart in the source
[24] = biological target: Bromodomain-containing protein 2 (Homo sapiens) (UniProt P25440); conditions: Compound concentration 10.0 uM, Protein concentration 2.0 uM; remark: listed apart in the source
[25] = biological target: SWI/SNF-related matrix-associated actin-dependent regulator of chromatin subfamily A member 4 (Homo sapiens) (UniProt P51532); conditions: Compound concentration 10.0 uM, Protein concentration 2.0 uM
[26] = biological target: Bromodomain-containing protein 3 (Homo sapiens) (UniProt Q15059); conditions: Compound concentration 10.0 uM, Protein concentration 2.0 uM; remark: listed apart in the source
[27] = biological target: Protein polybromo-1 (Homo sapiens) (UniProt Q86U86); conditions: Compound concentration 10.0 uM, Protein concentration 2.0 uM; remark: listed apart in the source
[28] = biological target: Transcription intermediary factor 1-beta (Homo sapiens) (UniProt Q13263); conditions: Compound concentration 10.0 uM, Protein concentration 2.0 uM
[29] = biological target: Transcription initiation factor TFIID subunit 1 (Homo sapiens) (UniProt P21675); conditions: Compound concentration 10.0 uM, Protein concentration 2.0 uM; remark: listed apart in the source
[30] = biological target: Bromodomain testis-specific protein (Homo sapiens) (UniProt Q58F21); conditions: Compound concentration 10.0 uM, Protein concentration 2.0 uM
[31] = biological target: Histone-lysine N-methyltransferase ASH1L (Homo sapiens) (UniProt Q9NR48); conditions: Compound concentration 10.0 uM, Protein concentration 2.0 uM
[32] = biological target: Protein polybromo-1 (Homo sapiens) (UniProt Q86U86); conditions: Compound concentration 10.0 uM, Protein concentration 2.0 uM; remark: listed apart in the source
[33] = biological target: Transcription intermediary factor 1-alpha (Homo sapiens) (UniProt O15164); conditions: Compound concentration 10.0 uM, Protein concentration 2.0 uM; remark: listed apart in the source
[34] = biological target: Bromodomain-containing protein 4 (Homo sapiens) (UniProt O60885); conditions: Compound concentration 10.0 uM, Protein concentration 2.0 uM; remark: listed apart in the source
[35] = biological target: Bromodomain testis-specific protein (Homo sapiens) (UniProt Q58F21); conditions: Compound concentration 10.0 uM, Protein concentration 2.0 uM; remark: listed apart in the source
[36] = biological target: Protein polybromo-1 (Homo sapiens) (UniProt Q86U86); conditions: Compound concentration 10.0 uM, Protein concentration 2.0 uM; remark: listed apart in the source
[37] = biological target: Tyrosine-protein kinase BAZ1B (Homo sapiens) (UniProt Q9UIG0); conditions: Compound concentration 10.0 uM, Protein concentration 2.0 uM
[38] = biological target: Histone acetyltransferase p300 (Homo sapiens) (UniProt Q09472); conditions: Compound concentration 10.0 uM, Protein concentration 2.0 uM
[39] = biological target: Histone-lysine N-methyltransferase 2A (Homo sapiens) (UniProt Q03164); conditions: Compound concentration 10.0 uM, Protein concentration 2.0 uM
[40] = biological target: Protein polybromo-1 (Homo sapiens) (UniProt Q86U86); conditions: Compound concentration 10.0 uM, Protein concentration 2.0 uM; remark: listed apart in the source
[41] = biological target: Bromodomain adjacent to zinc finger domain protein 2A (Homo sapiens) (UniProt Q9UIF9); conditions: Compound concentration 10.0 uM, Protein concentration 2.0 uM
[42] = biological target: Bromodomain and PHD finger-containing protein 3 (Homo sapiens) (UniProt Q9ULD4); conditions: Compound concentration 10.0 uM, Protein concentration 2.0 uM
Bromodomain and PHD finger-containing protein 3 (Homo sapiens), sequence (Q9ULD4 whole entry): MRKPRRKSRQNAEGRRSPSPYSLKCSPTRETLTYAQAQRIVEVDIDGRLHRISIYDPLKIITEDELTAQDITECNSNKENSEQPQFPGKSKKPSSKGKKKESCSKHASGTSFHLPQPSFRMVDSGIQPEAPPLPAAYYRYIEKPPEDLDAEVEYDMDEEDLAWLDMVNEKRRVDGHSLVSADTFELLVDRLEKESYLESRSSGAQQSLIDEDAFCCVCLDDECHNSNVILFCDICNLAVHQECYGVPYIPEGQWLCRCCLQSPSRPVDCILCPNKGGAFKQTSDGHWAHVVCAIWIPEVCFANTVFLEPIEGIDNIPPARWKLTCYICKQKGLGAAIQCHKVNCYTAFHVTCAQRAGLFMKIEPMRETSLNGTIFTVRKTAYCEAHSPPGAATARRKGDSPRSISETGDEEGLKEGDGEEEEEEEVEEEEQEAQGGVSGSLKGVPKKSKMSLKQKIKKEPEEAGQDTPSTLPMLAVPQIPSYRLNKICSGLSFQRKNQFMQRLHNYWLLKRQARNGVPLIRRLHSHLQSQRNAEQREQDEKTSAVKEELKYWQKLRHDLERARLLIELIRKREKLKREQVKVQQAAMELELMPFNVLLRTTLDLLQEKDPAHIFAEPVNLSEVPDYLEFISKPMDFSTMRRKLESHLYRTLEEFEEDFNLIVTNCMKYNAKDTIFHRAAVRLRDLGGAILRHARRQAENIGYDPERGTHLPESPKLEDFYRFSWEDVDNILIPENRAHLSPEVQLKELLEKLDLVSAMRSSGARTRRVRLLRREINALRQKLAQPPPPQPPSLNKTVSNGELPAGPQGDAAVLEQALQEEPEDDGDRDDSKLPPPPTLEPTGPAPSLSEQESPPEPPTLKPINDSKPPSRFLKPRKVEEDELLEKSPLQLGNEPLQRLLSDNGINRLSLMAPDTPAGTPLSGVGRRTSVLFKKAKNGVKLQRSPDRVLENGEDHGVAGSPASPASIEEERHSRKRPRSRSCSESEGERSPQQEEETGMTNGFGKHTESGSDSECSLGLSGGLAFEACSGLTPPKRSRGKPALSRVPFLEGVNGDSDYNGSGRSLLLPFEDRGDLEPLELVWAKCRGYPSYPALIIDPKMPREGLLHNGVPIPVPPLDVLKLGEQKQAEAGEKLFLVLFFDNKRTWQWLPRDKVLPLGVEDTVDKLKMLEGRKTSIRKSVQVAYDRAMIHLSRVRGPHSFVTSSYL

[43] = biological target: Protein polybromo-1 (Homo sapiens) (UniProt Q86U86); conditions: Compound concentration 10.0 uM, Protein concentration 2.0 uM; remark: listed apart in the source

ΔTm [1]: 0.33 °C
ΔTm [2]: 0.33 °C
ΔTm [3]: 0.33 °C
ΔTm [4]: -0.03 °C
ΔTm [5]: 0.18 °C
ΔTm [6]: -0.04 °C
ΔTm [7]: 0.31 °C
ΔTm [8]: 0.21 °C
ΔTm [9]: 2.09 °C
ΔTm [10]: -0.2 °C
ΔTm [11]: 0.74 °C
ΔTm [12]: 0.72 °C
ΔTm [13]: 0.5 °C
ΔTm [14]: 3.84 °C
ΔTm [15]: 0.88 °C
ΔTm [16]: 0.71 °C
ΔTm [17]: -0.24 °C
ΔTm [18]: 0.2 °C
ΔTm [19]: 0.79 °C
inhibition [20]: 35.5%
ΔTm [21]: 0.73 °C
ΔTm [22]: 1.21 °C
ΔTm [23]: 0.31 °C
ΔTm [24]: 0.75 °C
ΔTm [25]: 0.2 °C
ΔTm [26]: 0.74 °C
ΔTm [27]: -0.44 °C
ΔTm [28]: -0.53 °C
ΔTm [29]: 0.9 °C
ΔTm [30]: 0.18 °C
ΔTm [31]: 0.36 °C
ΔTm [32]: 0.03 °C
ΔTm [33]: 1.35 °C
ΔTm [34]: 1.37 °C
ΔTm [35]: 0.27 °C
ΔTm [36]: -0.35 °C
ΔTm [37]: -0.03 °C
ΔTm [38]: 0.9 °C
ΔTm [39]: 0.13 °C
ΔTm [40]: 0.26 °C
ΔTm [41]: 0.5 °C
ΔTm [42]: 2.36 °C and 1.34 °C
ΔTm [43]: 0.54 °C
SMILES: COc1ccccc1C(=O)Nc1cc2c(cc1N1CCCC1)n(C)c(=O)n2C

— ChEMBL document CHEMBL4649987, “Benzoisoquinolinediones as Potent and Selective Inhibitors of BRPF2 and TAF1/TAF1L Bromodomains” (ACS Chem Biol, 2017)
